# According to patent US12102594B2, “Infusion bag of Midazolam for intravenous use” (Sun Pharmaceutical Industries Limited, priority 2019, dated 2024):
# Experiments:
# [1] = cited from earlier work
# [2] = Packaging material screening: Assay of Midazolam HCL Injection in autoclaved and unautoclaved infusion containers; assay type: physicochemical
# Description: Manufacturing process: Bulk solution preparation: 80% of the batch size of water for injection (WFI) was collected at a temperature of 20° C. to 25° C. in stainless steel 316L manufacturing tank of suitable capacity. Nitrogen gas was purged to get dissolve oxygen content less than 1 mg/L (ppm), pressure of nitrogen gas and time of purging or flow rate of nitrogen gas were recorded. Sodium chloride was added and dissolved gradually followed by stirring for not less than 10 minutes to ensure complete solubilization and clarity of solution visually. While additional excipients were added as below, the purging was stopped. 1 w/w hydrochloric acid (35 mL/Kg) was added and stirred well for approximately 10 minutes. […] The pH was adjusted to 3.0±0.1 using sufficient quantity of 1 w/w hydrochloric acid and stirred for around 1 h after pH adjustment to ensure complete dissolution of drug, stabilization of pH and until the appearance of the solution was a clear colourless solution. The pH was adjusted at 3.4±0.2 using sufficient quantity of 1 w/w Sodium hydroxide solution, and the volume was made up with dissolved oxygen maintained WFI stored at 20° C. to 25° C. […]
# [3] = Adsorption behaviour of Midazolam in different bags at variable fill volume (HPLC assay); assay type: physicochemical; details: 1 mg/mL, fill volumes 10, 20, 30, 40 ml
# Description: Method: Adsorption behaviour of Midazolam in different bags (IC-S′, IC-S and IC-PHC) was evaluated at four variable fill volumes, i.e. 10 ml, 20 ml, 30 ml and 40 ml. The assay values of autoclaved samples of Midazolam formulation were evaluated using an HPLC based assay method. […] At lowest fill volume, surface area to volume ratio was high resulting higher adsorption of API on contact layer of infusion bags. As fill volume increases surface area to volume ratio decreases leads to lower adsorption and higher assay values. This confirmed the physical adsorption of Midazolam in IC-S infusion bags. […] This also ruled out the possibility of Midazolam adsorption in IC-PHC infusion bags.
# [4] = Terminal sterilization in different packaging material: Midazolam potency by HPLC based assay; assay type: physicochemical
# Description: Method: Midazolam formulation samples (i) autoclaved and (ii) unautoclaved, were stored in different packaging materials, i.e. glass bottle, IC-H-AE-1, IC-S, IC-S′ and IC-PHC. Initial potency of Midazolam in such samples was tested using an HPLC based assay method.
# [5] = Potency loss at lower concentration 0.2 and 0.5 mg/mL in different infusion bags (HPLC assay); assay type: physicochemical
# Description: Method: Loss of potency of Midazolam was assessed using an HPLC based assay method for (i) autoclaved and (ii) unautoclaved formulations (0.2 mg/ml and 0.5 mg/ml) in glass bottle, IC-S infusion bag, IC-S′ infusion bag and IC-PHC infusion bag.
Structure (SMILES),"period over which diluted preparation was stable ([1]; 0.5 mg/ml, diluted with 5% dextrose solution and 0.9% sodium chloride, polyolefin bags, dark, room temperature (Hagan et al.))","period over which diluted solution remained stable ([1]; 1 mg/ml diluted with 5% dextrose, polyvinyl chloride and polyolefin bags, regardless of storage conditions (Karlage et al.))","period of stability ([1]; 1 mg/ml in 0.9% sodium chloride, polyvinyl chloride bags, fluorescent light, room temperature (McMullin et al.))",loss in assay or content upon autoclaving and long term storage ([2]; cyclo-olefin polymer or co-polymer as innermost layer of the infusion container),"loss of assay percentage immediately after autoclaving ([2]; infusion bags with inner layer of low density polyethylene, polypropylene, polyolefin copolymer or ethylene propylene copolymer)",impact of fill volume on potency ([3]; IC-PHC infusion bags),assay of autoclaved sample vs fill volume ([3]; IC-S infusion bags),Midazolam potency loss ([4]; IC-H-AE-1 infusion bags),"Midazolam potency, autoclaved vs un-autoclaved ([4]; IC-PHC infusion bags)",Midazolam potency after autoclaving ([4]; IC-S and IC-S′ infusion bags),"potency loss ([5]; IC-PHC infusion bags, 0.2 and 0.5 mg/mL)","potency loss ([5]; IC-PHC infusion containers, 0.2 mg/mL)","potency loss ([5]; IC-PHC infusion containers, 0.5 mg/mL)","potency loss ([5]; IC-S and IC-S′ infusion bags, 0.2 and 0.5 mg/mL)"
"Cc1ncc2n1-c1ccc(Cl)cc1C(c1ccccc1F)=NC2.Cl [Midazolam hydrochloride, 8-chloro-6-(2-fluorophenyl)-1-methyl-4H-imidazo[1,5-a][1,4] benzodiazepine hydrochloride]",30 days,about 27 days,–,–,–,–,–,–,–,–,–,–,–,–
Cc1ncc2n1-c1ccc(Cl)cc1C(c1ccccc1F)=NC2 [Midazolam],–,–,about 10 days,substantially no loss in assay,significant loss of assay percentage,no impact of fill volume on potency,increasing trend with increasing fill volume,Potency loss was also not observed,no significant change,found to decrease after autoclaving,no potency loss,no potency loss,no potency loss,significant potency loss
